From ChEMBL document CHEMBL1201862, “PubChem BioAssay data set” (2004)
Calls of active or inactive are those of the source. Cut-off read from the data, not from the text of the source, for most assays here: actives have a measured EC50 and inactives only a lower limit.

Key:
Protein RecA = molecular target: T1, Protein RecA (Mycobacterium tuberculosis, UniProt P9WHJ3); test: Fluorescence Cell-Free Homogeneous Dose Retest to Identify Inhibitors of RecA-Intein Splicing Activity. [Related pubchem assays (depositor defined):AID2097, AID2223, AID489010, AID492950]; type: functional
T1 sequence (P9WHJ3 whole entry): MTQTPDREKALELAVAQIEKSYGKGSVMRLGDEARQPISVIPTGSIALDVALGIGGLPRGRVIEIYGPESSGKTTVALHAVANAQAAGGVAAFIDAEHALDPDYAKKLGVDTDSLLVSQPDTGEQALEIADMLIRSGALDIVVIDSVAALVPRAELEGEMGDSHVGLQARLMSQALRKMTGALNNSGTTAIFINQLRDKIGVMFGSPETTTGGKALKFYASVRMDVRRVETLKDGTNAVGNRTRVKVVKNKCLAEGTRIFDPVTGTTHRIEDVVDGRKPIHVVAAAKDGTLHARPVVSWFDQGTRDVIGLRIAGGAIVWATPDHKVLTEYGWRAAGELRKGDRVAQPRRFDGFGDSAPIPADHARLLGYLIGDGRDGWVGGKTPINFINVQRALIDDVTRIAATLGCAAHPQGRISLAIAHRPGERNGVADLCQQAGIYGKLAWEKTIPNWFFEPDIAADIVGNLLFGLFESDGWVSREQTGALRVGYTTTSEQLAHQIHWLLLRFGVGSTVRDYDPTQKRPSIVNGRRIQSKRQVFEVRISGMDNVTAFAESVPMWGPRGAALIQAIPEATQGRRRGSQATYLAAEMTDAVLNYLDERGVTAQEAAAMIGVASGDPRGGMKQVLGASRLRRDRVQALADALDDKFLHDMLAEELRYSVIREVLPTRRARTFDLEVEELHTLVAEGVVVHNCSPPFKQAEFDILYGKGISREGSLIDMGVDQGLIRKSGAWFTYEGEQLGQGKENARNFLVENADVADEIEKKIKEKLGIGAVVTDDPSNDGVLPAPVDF

cells = type: functional, cell-based
BJ [1] = test: cytotoxicity toward BJ-TERT fibroblasts, dose response, cell-based, RAS-independent, luminescence (AID 1933); type: functional; conditions: Homo sapiens
BJ [2] = test: cells; type: functional, cell-based, Homo sapiens; conditions: Homo sapiens, BJ
[3] = molecular target: T2, Short transient receptor potential channel 4 (Mus musculus, UniProt Q9QUQ5); test: mouse TRPC4 channel activators, dose response, cell-based, HEK293 TRPC4/mu-opioid, Fluo-4 calcium (AID 434937); type: functional
T2 sequence (Q9QUQ5 whole entry): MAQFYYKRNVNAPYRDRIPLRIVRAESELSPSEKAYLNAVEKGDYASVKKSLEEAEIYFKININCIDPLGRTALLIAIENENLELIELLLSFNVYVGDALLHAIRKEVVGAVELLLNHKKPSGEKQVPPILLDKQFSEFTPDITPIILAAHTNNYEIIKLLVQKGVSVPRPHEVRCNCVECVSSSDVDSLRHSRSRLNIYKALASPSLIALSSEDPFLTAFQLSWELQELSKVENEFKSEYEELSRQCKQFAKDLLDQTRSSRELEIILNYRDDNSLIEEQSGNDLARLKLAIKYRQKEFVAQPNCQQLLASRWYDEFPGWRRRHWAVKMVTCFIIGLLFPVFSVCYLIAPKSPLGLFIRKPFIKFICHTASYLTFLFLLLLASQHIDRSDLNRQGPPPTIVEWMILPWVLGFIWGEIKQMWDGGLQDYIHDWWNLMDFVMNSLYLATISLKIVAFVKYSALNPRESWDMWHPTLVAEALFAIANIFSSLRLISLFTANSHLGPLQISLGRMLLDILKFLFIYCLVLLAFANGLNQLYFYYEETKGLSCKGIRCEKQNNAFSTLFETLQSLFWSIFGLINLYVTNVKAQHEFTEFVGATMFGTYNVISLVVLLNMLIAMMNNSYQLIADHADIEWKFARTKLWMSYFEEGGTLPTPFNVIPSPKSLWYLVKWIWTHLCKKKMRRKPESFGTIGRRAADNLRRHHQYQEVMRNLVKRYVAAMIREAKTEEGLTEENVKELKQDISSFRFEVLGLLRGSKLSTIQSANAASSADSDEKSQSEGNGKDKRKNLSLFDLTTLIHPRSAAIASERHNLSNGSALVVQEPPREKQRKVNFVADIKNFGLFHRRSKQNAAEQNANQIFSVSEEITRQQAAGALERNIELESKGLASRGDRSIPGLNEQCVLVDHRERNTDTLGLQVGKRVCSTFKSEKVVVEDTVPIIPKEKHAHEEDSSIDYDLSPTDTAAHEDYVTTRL

[4] = Luminescence Cell-Based Dose Response HTS to Identify Inhibitors of 5'UTR Stem-Loop Driven Prion Protein mRNA Translation in H4 Neuroglioblastoma Cells. [Related pubchem assays: 1827 (Project Summary), 1813 (Primary HTS)]; type: functional
[5] = cytotoxicity toward DRD oncogenic fibroblasts, dose response, cell-based, non-viral oncogenic, luminescence (AID 1934); type: functional; conditions: Homo sapiens
[6] = inhibitors of SNCA 5'UTR-driven reporter translation, confirmation, H4 neuroglioma cells, luminescence (AID 1988); type: functional, cell-based
[7] = inhibitors of SNCA 5'UTR-driven translation, confirmation, luminescence, H4 neuroglioblastoma cells, dose confirmation (AID 2454); type: functional, cell-based;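 note: H4 neuroglioblastoma cells carrying an alpha-synuclein 5'UTR luciferase reporter; potency for inhibition of the luciferase signal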
[8] = Counterscreen for AddAB inhibitors: absorbance-based bacterial cell-based high throughput dose response assay for inhibitors of bacterial viability. [Related pubchem assays (depositor defined):AID435030, AID449728, AID449731, AID488942, AID488955, AID488956]; type: functional
BJ [9] = test: cytotoxicity toward BJ-TERT-LT-ST fibroblasts, dose response, cell-based, RAS-independent, luminescence (AID 1935); type: functional; conditions: Homo sapiens;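 note: BJ fibroblasts immortalized with TERT plus LT and ST oncogenes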
[10] = luciferase reporter signal reduction – luminescence, H4-C neuroglioblastoma cells, dose response (AID 2458); type: functional, cell-based;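 note: H4 neuroglioblastoma cells stably carrying a luciferase reporter gene fusion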
[11] = molecular target: T3, Replicative DNA helicase DnaB (Mycobacterium tuberculosis, UniProt P9WMR3); test: DnaB intein splicing inhibitors, dose response, biochemical, cell-free fluorescence (AID 449749); type: functional
T3 sequence (P9WMR3 whole entry): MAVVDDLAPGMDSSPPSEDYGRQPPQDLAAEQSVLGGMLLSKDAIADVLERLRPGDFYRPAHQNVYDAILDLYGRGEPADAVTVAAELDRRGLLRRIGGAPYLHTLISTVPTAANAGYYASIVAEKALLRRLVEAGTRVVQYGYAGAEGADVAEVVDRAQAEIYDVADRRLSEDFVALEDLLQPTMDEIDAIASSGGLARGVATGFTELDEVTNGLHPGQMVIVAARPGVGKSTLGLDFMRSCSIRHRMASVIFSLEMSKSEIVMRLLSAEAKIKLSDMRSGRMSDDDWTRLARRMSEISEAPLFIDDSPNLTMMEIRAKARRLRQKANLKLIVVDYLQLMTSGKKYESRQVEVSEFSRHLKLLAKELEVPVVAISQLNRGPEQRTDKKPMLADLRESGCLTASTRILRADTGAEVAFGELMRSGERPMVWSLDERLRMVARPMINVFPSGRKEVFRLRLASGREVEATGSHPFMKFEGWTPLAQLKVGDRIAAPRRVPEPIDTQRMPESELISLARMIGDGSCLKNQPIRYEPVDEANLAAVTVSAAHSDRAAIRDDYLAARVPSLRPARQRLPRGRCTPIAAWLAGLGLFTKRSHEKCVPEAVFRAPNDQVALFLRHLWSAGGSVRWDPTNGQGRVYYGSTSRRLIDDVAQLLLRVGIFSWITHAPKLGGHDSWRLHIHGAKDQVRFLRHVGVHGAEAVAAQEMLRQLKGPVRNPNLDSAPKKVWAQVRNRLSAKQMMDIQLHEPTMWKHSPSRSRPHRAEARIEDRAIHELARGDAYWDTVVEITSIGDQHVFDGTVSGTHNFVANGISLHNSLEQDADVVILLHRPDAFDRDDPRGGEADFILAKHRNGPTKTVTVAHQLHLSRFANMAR

[12] = cytotoxicity in HEK-293T cells, dose response, cytotoxicity control for TCR NF-kB inhibitor project, luminescence, T-cell screen hits (AID 489026); type: functional, cell-based;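 note: cells exposed to compound about 14 hours before the viability readout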
[13] = system: Streptococcus sp. 'group A'; test: growth inhibition of control SK(-) GAS strain, dose response, counter-screen for streptokinase expression inhibitor project, luminescence, kanamycin, BacTiterGlo, confirmation (AID 1900); type: functional, organism-based
Streptococcus = test: Group A Streptococcus viability loss, dose response, counter-screen for streptokinase expression inhibitor project, luminescence, BacTiterGlo (AID 1915); type: functional, organism-based;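 note: potency for reduction of bacterial viability or growth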
[14] = inhibitors of firefly luciferase expression or activity, dose response, H4 neuroglioma cells, luminescence (AID 1990); type: functional, cell-based
Exodeoxyribonuclease V = Exodeoxyribonuclease V (Escherichia coli (strain K12), UniProt P04993+P07648+P08394); test: E. coli RecBCD inhibitors, dose response, counter-screen for AddAB inhibitor project, absorbance, V66 E. coli, mutant T4 phage (AID 492957); type: functional, cell-based, Escherichia coli str. K-12 substr. MG1655
Chain of Exodeoxyribonuclease V (P04993 whole entry): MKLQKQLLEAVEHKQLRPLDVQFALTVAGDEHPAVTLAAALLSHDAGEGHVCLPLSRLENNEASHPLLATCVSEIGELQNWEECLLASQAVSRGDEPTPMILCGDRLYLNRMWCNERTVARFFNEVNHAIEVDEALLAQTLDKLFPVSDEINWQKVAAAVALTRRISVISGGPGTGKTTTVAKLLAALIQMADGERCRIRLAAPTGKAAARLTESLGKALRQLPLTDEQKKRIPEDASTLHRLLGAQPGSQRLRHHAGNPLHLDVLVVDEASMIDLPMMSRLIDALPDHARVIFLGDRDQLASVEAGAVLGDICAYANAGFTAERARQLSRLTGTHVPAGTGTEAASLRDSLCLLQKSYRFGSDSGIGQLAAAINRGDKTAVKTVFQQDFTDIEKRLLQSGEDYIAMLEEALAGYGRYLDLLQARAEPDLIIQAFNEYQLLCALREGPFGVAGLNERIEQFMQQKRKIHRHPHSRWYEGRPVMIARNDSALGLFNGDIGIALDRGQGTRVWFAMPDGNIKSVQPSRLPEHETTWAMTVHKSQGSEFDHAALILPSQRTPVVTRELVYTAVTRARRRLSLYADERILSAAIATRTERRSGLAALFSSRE
Chain of Exodeoxyribonuclease V (P07648 whole entry): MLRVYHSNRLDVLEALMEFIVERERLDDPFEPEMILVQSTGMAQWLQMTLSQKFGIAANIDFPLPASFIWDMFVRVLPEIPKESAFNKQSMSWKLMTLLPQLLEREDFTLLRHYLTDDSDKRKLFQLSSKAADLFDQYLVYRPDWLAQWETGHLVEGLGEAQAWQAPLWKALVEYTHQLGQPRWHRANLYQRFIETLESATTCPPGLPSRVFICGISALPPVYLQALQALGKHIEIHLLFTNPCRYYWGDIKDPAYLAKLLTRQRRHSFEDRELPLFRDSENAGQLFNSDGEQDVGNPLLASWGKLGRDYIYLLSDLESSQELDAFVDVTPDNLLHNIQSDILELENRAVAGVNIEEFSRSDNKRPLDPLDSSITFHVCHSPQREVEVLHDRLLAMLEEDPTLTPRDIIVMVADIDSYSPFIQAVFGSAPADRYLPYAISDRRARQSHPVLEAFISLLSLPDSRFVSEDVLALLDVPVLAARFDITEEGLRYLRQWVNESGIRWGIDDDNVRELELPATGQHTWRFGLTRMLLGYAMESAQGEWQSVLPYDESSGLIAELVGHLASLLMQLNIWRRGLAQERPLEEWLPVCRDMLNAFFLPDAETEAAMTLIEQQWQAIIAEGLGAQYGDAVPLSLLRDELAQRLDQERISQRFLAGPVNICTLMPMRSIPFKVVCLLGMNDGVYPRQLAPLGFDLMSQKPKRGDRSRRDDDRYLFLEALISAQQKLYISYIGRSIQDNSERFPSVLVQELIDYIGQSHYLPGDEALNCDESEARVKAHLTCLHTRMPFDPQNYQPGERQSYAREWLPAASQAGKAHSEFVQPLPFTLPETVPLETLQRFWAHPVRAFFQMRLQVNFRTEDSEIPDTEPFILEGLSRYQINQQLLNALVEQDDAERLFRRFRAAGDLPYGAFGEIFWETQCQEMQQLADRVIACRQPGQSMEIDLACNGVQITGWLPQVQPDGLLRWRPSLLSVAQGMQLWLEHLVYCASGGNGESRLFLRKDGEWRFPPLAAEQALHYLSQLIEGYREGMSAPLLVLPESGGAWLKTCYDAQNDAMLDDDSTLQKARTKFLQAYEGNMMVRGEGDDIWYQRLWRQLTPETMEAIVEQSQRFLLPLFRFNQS
Chain of Exodeoxyribonuclease V (P08394 whole entry): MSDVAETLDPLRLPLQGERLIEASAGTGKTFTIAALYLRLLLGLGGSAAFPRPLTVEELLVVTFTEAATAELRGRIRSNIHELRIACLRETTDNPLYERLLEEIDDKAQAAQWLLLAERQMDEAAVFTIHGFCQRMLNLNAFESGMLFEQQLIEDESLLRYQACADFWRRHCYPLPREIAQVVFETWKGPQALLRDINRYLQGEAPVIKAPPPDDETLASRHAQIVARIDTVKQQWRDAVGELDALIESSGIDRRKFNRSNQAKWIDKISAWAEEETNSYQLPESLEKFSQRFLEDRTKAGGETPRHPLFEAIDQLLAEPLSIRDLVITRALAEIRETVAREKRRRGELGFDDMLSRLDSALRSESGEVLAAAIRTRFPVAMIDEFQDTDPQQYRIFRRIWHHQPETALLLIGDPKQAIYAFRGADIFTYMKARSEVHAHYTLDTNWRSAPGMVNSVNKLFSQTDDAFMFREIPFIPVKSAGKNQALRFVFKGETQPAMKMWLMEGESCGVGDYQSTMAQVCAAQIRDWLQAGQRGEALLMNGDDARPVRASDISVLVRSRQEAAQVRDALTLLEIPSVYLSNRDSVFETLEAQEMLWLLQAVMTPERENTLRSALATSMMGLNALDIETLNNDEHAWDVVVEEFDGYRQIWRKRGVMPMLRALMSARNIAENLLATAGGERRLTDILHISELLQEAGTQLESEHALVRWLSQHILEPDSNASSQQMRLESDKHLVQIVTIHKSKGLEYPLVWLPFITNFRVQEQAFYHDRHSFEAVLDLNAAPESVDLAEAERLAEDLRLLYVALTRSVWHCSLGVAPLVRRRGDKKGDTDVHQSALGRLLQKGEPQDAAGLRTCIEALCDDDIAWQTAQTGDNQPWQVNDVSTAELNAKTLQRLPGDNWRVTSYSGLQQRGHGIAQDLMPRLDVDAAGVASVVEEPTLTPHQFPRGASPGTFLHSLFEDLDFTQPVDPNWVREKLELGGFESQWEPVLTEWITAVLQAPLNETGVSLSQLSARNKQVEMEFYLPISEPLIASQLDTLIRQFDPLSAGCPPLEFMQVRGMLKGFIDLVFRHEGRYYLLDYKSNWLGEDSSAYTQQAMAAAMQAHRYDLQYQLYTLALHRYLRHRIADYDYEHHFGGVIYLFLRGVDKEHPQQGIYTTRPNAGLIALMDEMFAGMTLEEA

[15] = C. albicans growth with fluconazole, confirmation, fluorescence, retest (AID 2467); type: functional, cell-based
[16] = molecular target: G-protein coupled receptor 55 (Homo sapiens, UniProt Q9Y2T6); test: GPR55 antagonists, SAR follow-up, counter-screen for GPR35 antagonist project, imaging, image-based (AID 2397); type: functional
Chain of G-protein coupled receptor 55 (Q9Y2T6 whole entry): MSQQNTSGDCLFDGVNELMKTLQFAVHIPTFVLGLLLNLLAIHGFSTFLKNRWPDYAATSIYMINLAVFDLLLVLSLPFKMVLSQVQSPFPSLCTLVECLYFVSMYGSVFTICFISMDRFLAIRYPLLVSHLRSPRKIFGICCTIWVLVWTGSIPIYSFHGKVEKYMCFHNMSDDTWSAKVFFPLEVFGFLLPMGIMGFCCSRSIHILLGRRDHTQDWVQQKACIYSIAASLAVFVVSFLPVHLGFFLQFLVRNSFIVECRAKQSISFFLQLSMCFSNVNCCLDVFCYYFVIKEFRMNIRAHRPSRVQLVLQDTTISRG

[17] = NIH-3T3 fibroblast cytotoxicity, dose response, cytotoxicity control, cell-based, fluorescence, Alamar Blue, secondary assay (AID 2327); type: functional;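 note: NIH-3T3 mouse fibroblasts cultured with fluconazole at 8 µg/mL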
[18] = inhibitors of intracellular T. cruzi replication, confirmation, NIH3T3 host cells, beta-gal luminescence (AID 2044); type: functional, cell-based;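 note: intracellular parasites grown in NIH/3T3 mouse fibroblasts as host cells; luminescent beta-galactosidase reporter signal from transgenic T. cruzi replicating inside host cells; inhibitors lower the luminescence signal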
[19] = cytotoxicity toward NIH3T3 fibroblasts, dose response, counter-screen, cell-based, ATP luminescence, mouse fibroblasts (AID 2010); type: functional;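 note: cells exposed to compound for about 90 hours before reading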
[20] = molecular target: G-protein coupled receptor 35 (Homo sapiens, UniProt Q9HC97); test: GPR35 antagonists blocking zaprinast-driven arrestin recruitment, primary screen, imaging, U2OS, beta-arrestin-GFP, zaprinast agonist (AID 2058); type: functional;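 note: antagonist potency meaning inhibition of agonist-induced arrestin redistribution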
Chain of G-protein coupled receptor 35 (Q9HC97 whole entry): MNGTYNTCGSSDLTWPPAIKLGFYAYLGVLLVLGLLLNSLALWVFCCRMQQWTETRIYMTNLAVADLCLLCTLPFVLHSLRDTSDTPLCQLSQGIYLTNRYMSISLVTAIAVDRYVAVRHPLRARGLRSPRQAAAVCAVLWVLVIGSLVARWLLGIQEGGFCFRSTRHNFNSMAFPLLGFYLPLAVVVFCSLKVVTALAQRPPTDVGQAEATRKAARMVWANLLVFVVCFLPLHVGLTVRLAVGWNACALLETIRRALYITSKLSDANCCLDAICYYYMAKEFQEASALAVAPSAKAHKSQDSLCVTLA

## Cc1ccc(C[n+]2c(-c3ccc(C)cc3)cc(-c3ccc(C)cc3)cc2-c2ccc(C)cc2)cc1.[O-][Cl+3]([O-])([O-])[O-]
Protein RecA
  EC50: 8.2 µM (active)
cells
  EC50: 3.46 µM (active)
BJ [1]
  EC50: 1.07 µM (inconclusive)
BJ [2]
  EC50: 1.23 µM (inconclusive)
[3]
  EC50: 5.31 µM (active)
[4]
  EC50: 4.41 µM (active)
[5]
  EC50: 1.31 µM (active)
[6]
  EC50: < 0.1 µM (active)
[7]
  EC50: 0.793 µM (active)
[8]
  IC50: 18.5 µM (inactive)
BJ [9]
  EC50: 2.7 µM (inconclusive)
[10]
  EC50: 1.62 µM (active)
[11]
  AC50: 3.61 µM (active)
[12]
  IC50: 25.9 µM (inactive)
[13]
  EC50: 3.71 µM (active)
Streptococcus
  EC50: 7.91 µM (active)
[14]
  EC50: < 0.1 µM (active)
Exodeoxyribonuclease V
  IC50: 20.1 µM (inactive)

## Cc1ccc2[nH]c(C)c(/C=C/c3cc[n+](C)cc3)c2c1
[15]
  EC50: 1.45 µM (active)
[16]
  IC50: 1.57 µM (active)
[17]
  EC50: > 150 µM (inactive)
[18]
  EC50: 0.725 µM (active)
[19]
  EC50: > 30 µM (not active)
[20]
  IC50: 1.62 µM (active)
